Data on one substance can be found in patent US20010055755A1, “Dendritic marker-expressing macrophage cultures and methods for reactivating latent HCMV” (priority 1997, published 2001).

The subject of this assay is HCMV. The assay is described as follows: HCMV infection of monocyte-derived dendritic cells with cytokine treatment. The following applies: up to day 12 post stimulation, compared with unstimulated cells. In kind it is cell-based. Here is the method: PBMC were isolated as described above and plated onto primaria plates for monocyte adherence. After two hours of culture, non-adherent cells were removed by three washes in serum free medium and adherent cells were stimulated with I1-4 (1000 U/ml) and GM-CSF (50 ng/ml) as previously described (Sallusto et al., J. Exp. Med. 179:1109-1118 (1994)). Immature dendritic cells cultured in RPMI medium containing 1% sodium pyruvate were developed during the first 12 days of culture. Cell samples were collected at 12 days for flow cytometric analysis to determine the expression of dendritic and macrophage markers. Small, round dendritic cells were stimulated with […] (10 ng/ml) and IFN-γ (500 U/ml) for two days. Thereafter, the mature, adherent dendritic cells were challenged with HCMV at a MOI of 10 or mock infected as described herein.
PBMC were cultured under standard conditions with IL-4 and GM-CSF to yield monocyte-derived dendritic cells (see, e.g., Annals Surg. 226:1-5 (1997)). The dendritic cells were infected in vitro under the conditions described herein with HCMV. […] Viral growth is measured as described with antibodies against viral proteins IE and gB. Viral growth is measured at days 1, 3, 8, 12, and 20 post infection.

On to “IFN-γ: cytokine used at 500 U/ml to stimulate dendritic cells”, for which the “viral expression in MDDC after additional stimulation” value is listed as “did not increase viral expression”.
